Experimental data reported in PubChem BioAssay (NCI).
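Method: 48-hour compound exposure of cells in 96-well plates, five concentrations, linear interpolation of endpoints. Here, GI50 denotes the concentration required for 50% inhibition of growth. The concentration for full growth arrest is given as TGI.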

Columns and labels:
Assay in all cases: DTP human tumour cell line panel, 48 h
HOP-92 NSCLC = tested on: HOP-92 NSCLC
UO-31 renal = tested on: UO-31 renal
NCI-H226 lung = tested on: NCI-H226 lung
SK-MEL-28 melanoma = tested on: SK-MEL-28 melanoma
HT29 colon = tested on: HT29 colon
NCI-H23 lung = tested on: NCI-H23 lung
K-562 leukemia = tested on: K-562 leukemia
M14 melanoma = tested on: M14 melanoma
MDA-MB-231 breast = tested on: MDA-MB-231 breast
COLO 205 colon = tested on: COLO 205 colon
MALME-3M melanoma = tested on: MALME-3M melanoma
HS 578T breast = tested on: HS 578T breast
HCT-116 colon = tested on: HCT-116 colon
786-0 renal = tested on: 786-0 renal
MCF7 breast = tested on: MCF7 breast
A498 renal = tested on: A498 renal
SF-268 CNS = tested on: SF-268 CNS
LOX IMVI melanoma = tested on: LOX IMVI melanoma
RPMI-8226 leukemia = tested on: RPMI-8226 leukemia
UACC-257 melanoma = tested on: UACC-257 melanoma
TK-10 renal = tested on: TK-10 renal
HCC-2998 colon = tested on: HCC-2998 colon
RXF 393 renal = tested on: RXF 393 renal
DU-145 prostate = tested on: DU-145 prostate
T-47D breast = tested on: T-47D breast
MOLT-4 leukemia = tested on: MOLT-4 leukemia
SK-OV-3 ovarian = tested on: SK-OV-3 ovarian
EKVX NSCLC = tested on: EKVX NSCLC
SW-620 colon = tested on: SW-620 colon
HCT-15 colon = tested on: HCT-15 colon
NCI/ADR-RES ovarian = tested on: NCI/ADR-RES ovarian
OVCAR-4 ovarian = tested on: OVCAR-4 ovarian
CAKI-1 renal = tested on: CAKI-1 renal
SK-MEL-2 melanoma = tested on: SK-MEL-2 melanoma
U251 CNS = tested on: U251 CNS
NCI-H522 lung = tested on: NCI-H522 lung
HL-60(TB) leukemia = tested on: HL-60(TB) leukemia
NCI-H460 lung = tested on: NCI-H460 lung
OVCAR-3 ovarian = tested on: OVCAR-3 ovarian
PC-3 prostate = tested on: PC-3 prostate
SK-MEL-5 melanoma = tested on: SK-MEL-5 melanoma
SR leukemia = tested on: SR leukemia
MDA-MB-435 = tested on: MDA-MB-435
SNB-19 CNS = tested on: SNB-19 CNS
HOP-62 NSCLC = tested on: HOP-62 NSCLC
UACC-62 melanoma = tested on: UACC-62 melanoma
IGROV1 ovarian = tested on: IGROV1 ovarian
SF-539 CNS = tested on: SF-539 CNS
KM12 colon = tested on: KM12 colon
SF-295 CNS = tested on: SF-295 CNS
CCRF-CEM leukemia = tested on: CCRF-CEM leukemia
SN12C renal = tested on: SN12C renal
OVCAR-8 ovarian = tested on: OVCAR-8 ovarian
BT-549 breast = tested on: BT-549 breast
OVCAR-5 ovarian = tested on: OVCAR-5 ovarian
A549 NSCLC = tested on: A549 NSCLC
SNB-75 CNS = tested on: SNB-75 CNS

COC(=O)c1c2c(c(C)[n+]([O-])c1C)C(=O)C=C(NCc1ccc(F)cc1)C2=O
GI50 (HOP-92 NSCLC): 1720 nM | TGI (HOP-92 NSCLC): 3830 nM | GI50 (UO-31 renal): 1240 nM | TGI (UO-31 renal): 2530 nM | GI50 (NCI-H226 lung): 1770 nM | TGI (NCI-H226 lung): 4130 nM | GI50 (SK-MEL-28 melanoma): 1100 nM | TGI (SK-MEL-28 melanoma): 3370 nM | GI50 (HT29 colon): 369 nM | GI50 (NCI-H23 lung): 733 nM | TGI (NCI-H23 lung): 3410 nM | GI50 (K-562 leukemia): 251 nM | TGI (K-562 leukemia): 5040 nM | GI50 (M14 melanoma): 513 nM | TGI (M14 melanoma): 1900 nM | GI50 (MDA-MB-231 breast): 354 nM | TGI (MDA-MB-231 breast): 4460 nM | GI50 (COLO 205 colon): 301 nM | TGI (COLO 205 colon): 970 nM | GI50 (MALME-3M melanoma): 153 nM | TGI (MALME-3M melanoma): 389 nM | GI50 (HS 578T breast): 1930 nM | TGI (HS 578T breast): 6660 nM | GI50 (HCT-116 colon): 319 nM | TGI (HCT-116 colon): 1180 nM | GI50 (786-0 renal): 1760 nM | TGI (786-0 renal): 4390 nM | GI50 (MCF7 breast): 276 nM | TGI (MCF7 breast): 1040 nM | GI50 (A498 renal): 1260 nM | TGI (A498 renal): 2560 nM | GI50 (SF-268 CNS): 1380 nM | TGI (SF-268 CNS): 4660 nM | GI50 (LOX IMVI melanoma): 224 nM | TGI (LOX IMVI melanoma): 2090 nM | GI50 (RPMI-8226 leukemia): 1250 nM | TGI (RPMI-8226 leukemia): 4810 nM | GI50 (UACC-257 melanoma): 258 nM | TGI (UACC-257 melanoma): 822 nM | GI50 (TK-10 renal): 3300 nM | TGI (TK-10 renal): 9550 nM | GI50 (HCC-2998 colon): 442 nM | TGI (HCC-2998 colon): 1770 nM | GI50 (RXF 393 renal): 1430 nM | TGI (RXF 393 renal): 2930 nM | GI50 (DU-145 prostate): 1150 nM | TGI (DU-145 prostate): 2400 nM | GI50 (T-47D breast): 288 nM | TGI (T-47D breast): 1880 nM | GI50 (MOLT-4 leukemia): 858 nM | TGI (MOLT-4 leukemia): 3090 nM | GI50 (SK-OV-3 ovarian): 2530 nM | TGI (SK-OV-3 ovarian): 6450 nM | GI50 (EKVX NSCLC): 963 nM | TGI (EKVX NSCLC): 2230 nM | GI50 (SW-620 colon): 344 nM | TGI (SW-620 colon): 1380 nM | GI50 (HCT-15 colon): 341 nM | TGI (HCT-15 colon): 1860 nM | GI50 (NCI/ADR-RES ovarian): 432 nM | TGI (NCI/ADR-RES ovarian): 5380 nM | GI50 (OVCAR-4 ovarian): 254 nM | TGI (OVCAR-4 ovarian): 1100 nM | GI50 (CAKI-1 renal): 527 nM | TGI (CAKI-1 renal): 2760 nM | GI50 (SK-MEL-2 melanoma): 1110 nM | TGI (SK-MEL-2 melanoma): 2780 nM | GI50 (U251 CNS): 999 nM | TGI (U251 CNS): 2620 nM | GI50 (NCI-H522 lung): 792 nM | TGI (NCI-H522 lung): 3200 nM | GI50 (HL-60(TB) leukemia): 454 nM | TGI (HL-60(TB) leukemia): 1920 nM | GI50 (NCI-H460 lung): 493 nM | TGI (NCI-H460 lung): 2000 nM | GI50 (OVCAR-3 ovarian): 245 nM | TGI (OVCAR-3 ovarian): 744 nM | GI50 (PC-3 prostate): 317 nM | TGI (PC-3 prostate): 3680 nM | GI50 (SK-MEL-5 melanoma): 193 nM | TGI (SK-MEL-5 melanoma): 405 nM | GI50 (SR leukemia): 639 nM | TGI (SR leukemia): 9920 nM | GI50 (MDA-MB-435): 173 nM | TGI (MDA-MB-435): 339 nM | GI50 (SNB-19 CNS): 1380 nM | TGI (SNB-19 CNS): 2830 nM | GI50 (HOP-62 NSCLC): 1380 nM | TGI (HOP-62 NSCLC): 3760 nM | GI50 (UACC-62 melanoma): 175 nM | TGI (UACC-62 melanoma): 1160 nM | GI50 (IGROV1 ovarian): 363 nM | TGI (IGROV1 ovarian): 1610 nM | GI50 (SF-539 CNS): 641 nM | TGI (SF-539 CNS): 1870 nM | GI50 (KM12 colon): 357 nM | TGI (KM12 colon): 2220 nM | GI50 (SF-295 CNS): 592 nM | TGI (SF-295 CNS): 1940 nM | GI50 (CCRF-CEM leukemia): 500 nM | TGI (CCRF-CEM leukemia): 6000 nM | GI50 (SN12C renal): 345 nM | TGI (SN12C renal): 1410 nM | GI50 (OVCAR-8 ovarian): 370 nM | TGI (OVCAR-8 ovarian): 1930 nM | GI50 (BT-549 breast): 1300 nM | TGI (BT-549 breast): 2630 nM | GI50 (OVCAR-5 ovarian): 1390 nM | TGI (OVCAR-5 ovarian): 2880 nM | GI50 (A549 NSCLC): 794 nM | TGI (A549 NSCLC): 3150 nM | GI50 (SNB-75 CNS): 1650 nM | TGI (SNB-75 CNS): 3030 nM
